This note sets out measurements from ChEMBL document CHEMBL1201862, “PubChem BioAssay data set” (2004).

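In this assay, cells in 96-well plates receive the compound at five concentrations for 48 hours. Endpoints are linearly interpolated between the surrounding concentrations. GI50: concentration for 50% inhibition of growth.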 Activity calls are given as the source filed them. No stated cut-off is given here; in the data, active = GI50 up to about 1.1 µM and inactive = higher. Some results are limits rather than exact numbers.

Among the test systems are NCI-H522; ACHN; A549; HCT-15; KM12; MOLT-4; HOP-62; SR; A498; SK-MEL-2; OVCAR-8; RXF 393; SK-MEL-28; HT-29; IGROV-1; SF-295; SK-OV-3; SN12C.
What all share (test): NCI anticancer screen, dose series, 48 h

Regarding `Cc1cc2nc(O)c(CCC(=O)O)nc2cc1C`, the GI50 was 83.8 µM (inactive) with NCI-H522; > 100 µM (inactive) in the experiment with ACHN; > 100 µM (inactive) with A549; above 100 µM in the experiment on HCT-15; > 100 µM (inactive) in the experiment with KM12; > 100 µM (inactive) in the experiment with MOLT-4. Further, the GI50 was > 100 µM (inactive) with HOP-62; 43.4 µM (inactive) with SR; > 100 µM (inactive) with A498; > 100 µM (inactive) in the experiment on SK-MEL-2; > 100 µM (inactive) with OVCAR-8; > 100 µM (inactive) with RXF 393. In addition, the GI50 in the experiment on SK-MEL-28, in the experiment with HT-29, with IGROV-1, in the experiment with SF-295, in the experiment with SK-OV-3 and with SN12C was > 100 µM (inactive) in each case.
For `CCSc1nnc(-c2ccccc2)nc1Cc1ccc(OC)cc1`, the GI50 with NCI-H522 was 43.3 µM (inactive); in the experiment on ACHN, 77.8 µM (inactive); in the experiment with A549 it was 42.2 µM (inactive); with HCT-15 it was 82 µM; in the experiment on KM12, > 100 µM (inactive); in the experiment with MOLT-4, 49.2 µM (inactive). Besides, the GI50 is > 100 µM (inactive) with HOP-62; 42.8 µM (inactive) in the experiment with SR; 77.6 µM (inactive) in the experiment with A498; 87.1 µM (inactive) with SK-MEL-2; > 100 µM (inactive) in the experiment with OVCAR-8; > 100 µM (inactive) in the experiment on RXF 393. For the same molecule, the GI50 was > 100 µM (inactive) in the experiment with SK-MEL-28; > 100 µM (inactive) with HT-29; > 100 µM (inactive) with IGROV-1; 52.5 µM (inactive) in the experiment on SF-295; 67.3 µM (inactive) in the experiment on SK-OV-3; > 100 µM (inactive) with SN12C.
As to `O=C(NCO)NCOCn1c(=O)n(CO)c(=O)n(CO)c1=O`, the GI50 in the experiment on ACHN is 49.1 µM (inactive); in the experiment on A549, 66.7 µM (inactive); in the experiment on HCT-15, 23.8 µM; in the experiment with KM12, 31 µM (inactive); in the experiment on MOLT-4 it was 23.4 µM (inactive); in the experiment on HOP-62, > 100 µM (inactive). In addition, the GI50 is 29.2 µM (inactive) with SR; > 100 µM (inactive) with A498; 17.9 µM (inactive) in the experiment on SK-MEL-2; 32.9 µM (inactive) in the experiment on OVCAR-8; 15.2 µM (inactive) in the experiment on RXF 393; 22.1 µM (inactive) in the experiment on SK-MEL-28. Besides, the GI50 in the experiment with HT-29 is 32.6 µM (inactive); with IGROV-1, > 100 µM (inactive); in the experiment with SF-295 it was > 91 µM (inactive); in the experiment with SK-OV-3, 99.8 µM (inactive); in the experiment with SN12C it was > 60.7 µM (inactive).
For `CC(/C=C/NNC1=NN=C(c2ccccc2)C(c2ccccc2)N1)Sc1ccccc1N` (configuration not stated), the GI50 in the experiment on NCI-H522 was 3.56 µM (inactive); in the experiment with ACHN, 10.4 µM (inactive); with A549, 11.4 µM (inactive); in the experiment with HCT-15 it was 4.89 µM; with KM12 it was 8.85 µM (inactive); in the experiment with MOLT-4, 3.43 µM (inactive). The GI50 with HOP-62 was 17.9 µM (inactive); with SR it was 2.99 µM (inactive); with A498 it was 13.6 µM (inactive); in the experiment with SK-MEL-2 it was 7.29 µM (inactive); in the experiment with OVCAR-8, 4.36 µM (inactive); in the experiment on SK-MEL-28, 8.93 µM (inactive). The GI50 in the experiment with HT-29 is 11 µM (inactive); with IGROV-1 it was 14.4 µM (inactive); in the experiment on SF-295, 10.5 µM (inactive); in the experiment on SK-OV-3 it was 17.1 µM (inactive); in the experiment with SN12C it was 5.79 µM (inactive).
Consider `CC12CC/C(=N/NC(N)=O)C3C1CCCC32`, for which the GI50 in the experiment with NCI-H522 was > 100 µM (inactive); in the experiment with ACHN, > 100 µM (inactive); with A549, > 100 µM (inactive); in the experiment with HCT-15, above 100 µM; in the experiment with KM12, > 100 µM (inactive); with MOLT-4, > 100 µM (inactive). In addition, the GI50 in the experiment with HOP-62, in the experiment on SR, with A498, in the experiment with SK-MEL-2, in the experiment with OVCAR-8 and with SK-MEL-28 was > 100 µM (inactive) throughout. The GI50 in the experiment on HT-29, in the experiment with IGROV-1, in the experiment with SF-295, with SK-OV-3 and in the experiment with SN12C was > 100 µM (inactive) in each case.
For `O=C1NC(=S)NC(=O)C1=Cc1ccc2ccccc2n1`, the GI50 in the experiment on NCI-H522 was > 100 µM (inactive); in the experiment on ACHN, > 100 µM (inactive); with A549, > 100 µM (inactive); in the experiment with HCT-15, above 100 µM; in the experiment with KM12 it was > 100 µM (inactive); in the experiment on MOLT-4, > 100 µM (inactive). Besides, the GI50 in the experiment on HOP-62, in the experiment with SR, in the experiment with A498, in the experiment on SK-MEL-2, in the experiment on OVCAR-8 and in the experiment on RXF 393 was > 100 µM (inactive) each time. The GI50 in the experiment with SK-MEL-28, in the experiment with HT-29, in the experiment on IGROV-1, in the experiment with SF-295, in the experiment on SK-OV-3 and in the experiment with SN12C was > 100 µM (inactive) in each case.
As for `O=C1C(c2ccccc2)=[N+]([O-])c2ccc(Cl)cc21`, the GI50 is 15.3 µM (inactive) in the experiment on NCI-H522; 23.2 µM (inactive) with ACHN; 32.1 µM (inactive) in the experiment on A549; 20 µM in the experiment with HCT-15; 30.1 µM (inactive) in the experiment on KM12; 23.6 µM (inactive) in the experiment with MOLT-4. Moreover, the GI50 was 63.4 µM (inactive) with HOP-62; 34.7 µM (inactive) in the experiment with SR; > 100 µM (inactive) in the experiment on A498; > 100 µM (inactive) in the experiment with SK-MEL-2; 15 µM (inactive) in the experiment with OVCAR-8; 13.2 µM (inactive) with RXF 393. Moreover, the GI50 in the experiment on SK-MEL-28 is 20 µM (inactive); in the experiment on HT-29, 22 µM (inactive); with IGROV-1, 20.6 µM (inactive); in the experiment with SF-295 it was 34.1 µM (inactive); with SK-OV-3, > 100 µM (inactive); in the experiment with SN12C, 24.2 µM (inactive).
`NCCSc1cc(O)c2c(c1N)C(=O)c1ccccc1C2=O`: the GI50 with NCI-H522 was 19.6 µM (inactive); with ACHN it was 43.8 µM (inactive); in the experiment with A549, > 100 µM (inactive); in the experiment with HCT-15, 29.3 µM; with KM12, 51.2 µM (inactive); in the experiment with MOLT-4 it was 20.9 µM (inactive). In addition, the GI50 in the experiment on HOP-62 was > 100 µM (inactive); in the experiment on SR it was 20.8 µM (inactive); in the experiment with A498, 91.2 µM (inactive); with SK-MEL-2 it was 65.6 µM (inactive); in the experiment with OVCAR-8 it was 27.9 µM (inactive); in the experiment on RXF 393, 27.7 µM (inactive). Moreover, the GI50 in the experiment on SK-MEL-28 was > 100 µM (inactive); in the experiment on HT-29 it was 34.1 µM (inactive); with IGROV-1 it was 18.8 µM (inactive); with SF-295, 46 µM (inactive); in the experiment on SK-OV-3, > 100 µM (inactive); in the experiment with SN12C, 47.1 µM (inactive).
As for `C1CN(P2(N3CC3)=NP(N3CC3)(N3CC3)=NP(N3CC3)(N3CC3)=N2)CCO1` (configuration not stated) [FOTRETAMINE], the GI50 is > 100 µM (inactive) in the experiment with NCI-H522; 37.5 µM (inactive) in the experiment with ACHN; > 100 µM (inactive) in the experiment on A549; above 100 µM with HCT-15; > 100 µM (inactive) in the experiment with KM12; 8.2 µM (inactive) in the experiment with MOLT-4. Also, the GI50 with HOP-62 was 26.6 µM (inactive); with SR, 2.47 µM (inactive); in the experiment on A498, > 100 µM (inactive); in the experiment on SK-MEL-2, > 100 µM (inactive); in the experiment with OVCAR-8, > 100 µM (inactive); in the experiment with RXF 393 it was > 100 µM (inactive). The GI50 in the experiment on SK-MEL-28 was > 100 µM (inactive); in the experiment on HT-29 it was > 100 µM (inactive); in the experiment on IGROV-1 it was > 100 µM (inactive); in the experiment on SF-295 it was 54.7 µM (inactive); in the experiment on SK-OV-3 it was > 100 µM (inactive); in the experiment with SN12C it was > 68.2 µM (inactive).
On to `COc1ccc(-c2cc(-c3cc(Cl)cc(Br)c3O)nc(O)n2)cc1`, for which the GI50 is 13.4 µM (inactive) in the experiment on NCI-H522; 14.2 µM (inactive) in the experiment on ACHN; 16.7 µM (inactive) in the experiment with A549; 18.9 µM (inactive) with KM12; 13.2 µM (inactive) with MOLT-4; 14.1 µM (inactive) with HOP-62. Also, the GI50 in the experiment with SR was 18 µM (inactive); in the experiment with A498 it was 16.6 µM (inactive); with OVCAR-8, 16.7 µM (inactive); with RXF 393, 14.5 µM (inactive); with SK-MEL-28, 19.9 µM (inactive); in the experiment on HT-29 it was 17.7 µM (inactive). Further, the GI50 with IGROV-1 is 20.4 µM (inactive); with SF-295, 18 µM (inactive); in the experiment with SK-OV-3, 19.5 µM (inactive); in the experiment with SN12C it was 15.5 µM (inactive).
For `N#[N+][c-]1c(-c2ccccc2)n[nH]c1=O`, the GI50 with NCI-H522 was > 100 µM (inactive); in the experiment on ACHN, > 100 µM (inactive); in the experiment with A549 it was > 100 µM (inactive); in the experiment on HCT-15 it was above 100 µM; with KM12 it was > 100 µM (inactive); in the experiment with MOLT-4 it was > 100 µM (inactive). Besides, the GI50 with SR, in the experiment with SK-MEL-2, in the experiment with OVCAR-8, in the experiment with RXF 393, in the experiment with SK-MEL-28 and with HT-29 was > 100 µM (inactive) in each case. The GI50 in the experiment with IGROV-1, in the experiment on SF-295, with SK-OV-3 and with SN12C was > 100 µM (inactive) in each case.
With `NC1=NS(=O)(=O)N=C(N)C1=Cc1ccc([N+](=O)[O-])o1`, the GI50 was 17.7 µM (inactive) in the experiment with NCI-H522; 16.9 µM (inactive) in the experiment with ACHN; 52 µM (inactive) in the experiment on A549; 16.8 µM in the experiment on HCT-15; 18.5 µM (inactive) in the experiment with KM12; 12.6 µM (inactive) in the experiment with MOLT-4. Besides, the GI50 was 3.73 µM (inactive) in the experiment with SR; 16.1 µM (inactive) in the experiment with SK-MEL-2; 17.3 µM (inactive) in the experiment with OVCAR-8; 18.8 µM (inactive) in the experiment with RXF 393; 16 µM (inactive) in the experiment on SK-MEL-28; 18.2 µM (inactive) in the experiment with HT-29. The GI50 in the experiment with IGROV-1 is 18.2 µM (inactive); in the experiment with SF-295 it was 25.4 µM (inactive); in the experiment with SK-OV-3, 35 µM (inactive); in the experiment with SN12C it was 16.5 µM (inactive).
